According to ChEMBL document CHEMBL1136374, “Inactivation of S-adenosyl-L-homocysteine hydrolase with novel 5'-thioadenosine derivatives. Antiviral effects” (Bioorg Med Chem Lett, 2003):
Values after ≈ are worked out from the molar mass of the structure shown.

System: Vaccinia virus
Test: Cytopathogenicity against vaccinia virus
Format: functional
Details: Orthopoxvirus vaccinia

C=CSC[C@H]1OC(n2cnc3c(N)ncnc32)[C@H](O)[C@@H]1O (stereo partly specified)
MIC: 30 µM (≈ 9.28 µg/mL)
